# Laboratory results reported in US20250161346A1, “METHODS FOR TREATING HEPATITIS B VIRUS INFECTION” (KAOHSIUNG MEDICAL UNIVERSITY, priority 2022, published 2025).
# Entries after “also recorded” stand apart in the source; their conditions may differ.
# Key:
# HBV [1] = test: ELISA of HBsAg and HBeAg in medium, time course of drug treatment in HBV infection system (HepG2-NTCP-AS cells); assay type: cell-based, hepatitis B virus
# Description: (§1) However, HBc is strongly arrested in the nucleus by about 150-fold at 9 dpi, when co-treated with compounds KPT-330 or KPT-335. These two drugs are CRM1 inhibitors. Green: HBc. Red: NTCP. Blue: DAPI. […] Briefly, the infected culture of HepG2-NTCP-AS cells are treated with KPT-335 (0.5-1 μM) at 0, 3, and 5 dpi continuously until cell harvesting. Media are collected for ELISA of HBsAg and HBeAg. Cells are harvested for further analysis by Southern blot (SB) and Northern blots (NB). […] The level of total cytoplasmic viral RNA is reduced moderately by treatment with SINE compounds (1 μM). Comparisons of relaxed circular (RC) DNA banding intensities are as described in FIGS. 1A-1B legend, and normalized here to the no drug treatment control. SS: […].
# (§2) The results in FIGS. 1A-1B by genetic mutant analysis was also supported by the results from the CRM1 drug treatment experiment (FIGS. 2A-2F). KPT-330 and KPT-335 are known CRM1 inhibitors. In an HBV in vitro infection system, when KPT-330 or KPT-335 were added to the cell culture before or soon after the infection with HBV, HBc was strongly arrested in the nucleus by immunofluorescence microscopy (FIG. 2A). Relative to the control with no drug treatment, KPT-330 and KPT-335 could increase nuclear HBc by approximately 150-fold (FIG. 2B). HBsAg and HBeAg were HBV serum markers.
# HBV [2] = test: HBV virion secretion assay, HuH-7 cells transfected with HBV replicon, native agarose gel with Western and Southern blot; assay type: cell-based, hepatitis B virus
# Description: (§3) FIGS. 6A and 6B show a cartoon illustration for the analysis methods of extracellular and intracellular HBV viral and subviral particles. […] Viral and subviral particles are separated and characterized by Southern and Western blot analyses. Anti-HBc and anti-HBs antibodies are used consecutively for the same Western blot filters. Southern blot is performed in a separate agarose gel which allows the differentiation of genome-containing (G^+) from genome-free (G^−) viral and subviral particles. […] Then, the RNA/DNA signals are analyzed by Northern blot and Southern blot. 3.5 kb pgRNA: full-length 3.5 kb pre-genomic RNA. RT RNA: reverse transcripted RNA.
# (§4) This mutant secretes no naked capsids. V/NC: Virions/naked capsids.
# An HBV replicon plasmid is transfected into HuH-7 human hepatoma cell line. SINE compound KPT-8602 is added to the transfected culture at 0 hr post-transfection (i.e., co-treatment). Extracellular media are collected on day 5 (120 hr) post-transfection. Assays for virion secretion are as described in FIG. 6A. Secretion of naked capsids is 100-fold (10 μM/0.1 μM) less sensitive to KPT-8602 treatment than virions.
# (§5) HBV secreted a total of six different viral and subviral particles in hepatocyte cell culture (FIG. 5). The only infectious particles were the genome-containing virions, which contained envelope protein, capsids, and encapsidated relaxed circle DNA genome. In FIGS. 6A and 6B, a cartoon illustrated the analysis methods of extracellular and intracellular HBV viral and subviral particles. […] Adding drug at 1-day post infection was not effective in blocking virion secretion (FIG. 7C). The potential cytotoxicity of KPT-335 was evaluated using two different methods—Alamar Blue and CCK-8 assays (FIG. 8).
# HuH-7 cells = test: Cell proliferation by alamarBlue and CCK-8 assays; assay type: cell-based, human
# Text: as §5
# HBV [3] = test: Southern and Northern blot analyses of HBV DNA synthesis and capsid-associated pgRNA in the infection assay; assay type: cell-based, hepatitis B virus; details: cotreatment, 0.5-1 μM
# Description: as §1, §2
# HBV [4] = test: Intracellular WT-HBV capsid protein, capsid-associated viral RNA and DNA in the dose-response experiment; assay type: cell-based, hepatitis B virus; details: 0.5 μM
# Description: as §3, §4, §5
# [5] = system: Kaposi's sarcoma-associated herpesvirus (KSHV); details: cited from earlier work
# [6] = system: human cytomegalovirus (HCMV); details: by increasing the expression of type I interferon; cited from earlier work
# [7] = drug and virus added at the same time (co-treatment), 0.5-1 μM
smiles,measurement,setting,value
"O=C(/C=C\n1cnc(-c2cc(C(F)(F)F)cc(C(F)(F)F)c2)n1)NNc1ccccn1 [KPT-335, Verdinexor]",effect on HBV,HBV [1]; added at 3 or 5 dpi,no effect
same,HBeAg in the medium by ELISA,HBV [1]; drug added at 3 or 5 dpi,no apparent effect
same,HBsAg in the medium by ELISA,HBV [1]; drug added at 3 or 5 dpi,no apparent effect
same,HBeAg in the medium by ELISA,HBV [1]; [7],inhibit; also recorded: complete inhibition
same,HBsAg in the medium by ELISA,HBV [1]; [7],inhibit; also recorded: complete inhibition
same,HBV virion secretion,"HBV [2]; 0.5 μM, co-treatment",almost completely block
same,"secretion of naked capsids, sensitivity in contrast to virions","HBV [2]; 0.1, 0.25, 0.5 and 1 μM",much less sensitive
same,blocking virion secretion,HBV [2]; drug added at 1-day post infection,not effective
same,anti-proliferation effect,"HuH-7 cells; below 0.25 μM, alamarBlue and CCK-8",No significant anti-proliferation effect
same,HBV DNA synthesis,HBV [3],strongly inhibited
same,HBV RNA encapsidation (cytoplasmic capsid-associated pgRNA),HBV [3],strongly inhibited
same,formation of HBc capsids,HBV [3],strongly inhibited
same,capsid protein,HBV [4],no significant effect
same,capsid-associated RNA (RNA encapsidation),HBV [4],no significant effect
"NC(=O)/C(=C/n1cnc(-c2cc(C(F)(F)F)cc(C(F)(F)F)c2)n1)c1cncnc1 [KPT-8602, Eltanexor]",HBV virion secretion,"HBV [2]; 0.1 μM, co-treatment at 0 hr post-transfection, media collected day 5",blocks; also recorded: nearly completely block
same,"inhibition of HBV virion secretion, side-by-side comparison","HBV [2]; 0.1, 0.25, 0.5 and 1 μM",more inhibitory than KPT-335
same,"secretion of naked capsids, sensitivity in contrast to virions","HBV [2]; 0.1, 0.25, 0.5 and 1 μM",much less sensitive
same,"potency, side-by-side comparison","HBV [2]; HBV virion secretion, HuH-7",more potent
same,secretion of naked capsids less sensitive than virions (10 μM/0.1 μM),"HBV [2]; HuH-7, co-treatment, day 5",100 fold
same,"cytotoxicity, side-by-side comparison",HuH-7 cells,less cytotoxic
same,lytic replication of KSHV,[5],reduced
same,inhibition of human cytomegalovirus (HCMV),[6],inhibit
